The record followed here is ChEMBL document CHEMBL5236634, “Membrane-Targeting Neolignan-Antimicrobial Peptide Mimic Conjugates to Combat Methicillin-Resistant Staphylococcus aureus (MRSA) Infections” (J Med Chem, 2022).

Active and inactive are the calls of the source. No cut-off for these calls is given here. Where only a bound is given, the exact number is not on record here.

One series has as its system Enterococcus faecalis. Put plainly: Antibacterial activity against Enterococcus faecalis ATCC 29212 assessed as inhibition of bacterial growth incubated for 16 to 20 hrs by CLSI based microdilution method. The format is functional. The conditions noted are these: time 16-20 hrs.
Series [1] is described as follows: Selectivity index, ratio of HC50 for hemolytic activity in sheep RBC to MIC for antibacterial activity against Staphylococcus aureus ATCC 29213. In kind it is toxicity. The conditions noted are these: sheep red blood cells.
Series [2] deals with Staphylococcus aureus. Nature of the series: Inhibition of biofilm formation in methicillin-resistant Staphylococcus aureus 15 incubated for 24 hrs by crystalline violet staining based analysis. The format is functional, organism-based. The conditions noted are these: dose 0.125-64 µg/ml.
Series [3] concerns Staphylococcus aureus. Put plainly: Inhibition of biofilm formation in methicillin-resistant Staphylococcus aureus 15 at 64 ug/ml incubated for 24 hrs by crystalline violet staining based analysis. In kind it is functional.
Series [4] concerns Staphylococcus aureus. Put plainly: Inhibition of biofilm formation in methicillin-resistant Staphylococcus aureus 15 assessed as destruction of formed biofilm at 128 ug/ml incubated for 24 hrs by crystal violet staining based analysis relative to control. The format is functional.
For series [5], the system named is Staphylococcus aureus. Nature of the series: Antibiofilm activity against methicillin-resistant Staphylococcus aureus 15 assessed as reduction in live bacteria in biofilm incubated for 24 hrs by crystal violet staining based analysis. In kind it is functional, organism-based. The conditions noted are these: dose 0-128 µg/ml.
Series [6] concerns Cell membrane. Put plainly: Disruption of membrane integrity in methicillin-resistant Staphylococcus aureus 15 assessed as increase in red fluorescence at 16 ug/ml incubated for 1 hr by DAPI/PI staining based fluorescence microscopic analysis. The format is subcellular. The conditions noted are these: dose 16.0 µg/ml.
Series [7] deals with Staphylococcus aureus. Put plainly: Antibacterial activity against methicillin-resistant Staphylococcus aureus 15 incubated for 16 to 18 hrs in presence of peptidoglycan by checkerboard microdilution assay. In kind it is functional, organism-based. The conditions noted are these: time 16-18 hrs.
Series [8] relates to Staphylococcus aureus. Nature of the series: Antibacterial activity against methicillin-resistant Staphylococcus aureus 15 incubated for 16 to 18 hrs in presence of phosphatidylethanolamine by checkerboard microdilution assay. In kind it is functional, organism-based. The conditions noted are these: time 16-18 hrs.
Series [9] deals with Cell membrane. Nature of the series: Induction of cell membrane disruption in methicillin-resistant Staphylococcus aureus 15 assessed as DNA leakage at 1 to 6 times MIC incubated for 1 to 2 hrs by microspectrophotometer. The conditions noted are these: time 1-2 hrs. In kind it is subcellular.
Series [10] can be described thus: Stability in 50% plasma (unknown origin) assessed as change in MBC against methicillin-resistant Staphylococcus aureus 15 measured for 6 hrs. In kind it is ADME, cell-free.
Series [11] has as its system L02. Put plainly: Cytotoxicity against human L02 cells assessed as reduction in cell viability at 2.5 to 80 ug/ml incubated for 24 hrs by CCK-8 assay. The conditions noted are these: l02, 24 h, dose 2.5-80 µg/ml. In kind it is toxicity, cell-based.
The test system of series [12] is L02. Nature of the series: Cytotoxicity against human L02 cells assessed as effect on cell morphology at 2.5 to 80 ug/ml incubated for 24 hrs by Hoechst 33342 and propidium iodide staining based fluorescence microscopic analysis. In kind it is toxicity. The conditions noted are these: l02, 24 h, dose 2.5-80 µg/ml.
The nature of series [13]: Toxicity in BALB/c mouse assessed as survival rate at 10 to 50 mg/kg, ip administered as single dose and measured for 7 consecutive days. In kind it is organism-based. The conditions noted are these: in vivo, dose 10-50 mg/kg, time 7 day.
Series [14] is described as follows: Toxicity in BALB/c mouse assessed as effect on hemoglobin level at 50 mg/kg, ip administered as single dose and measured after 24 hrs. The format is organism-based. The conditions noted are these: in vivo.
A short description of series [15]: Toxicity in BALB/c mouse assessed as pathological changes in liver at 50 mg/kg, ip administered as single dose and measured after 24 hrs by H & E staining based analysis. The format is organism-based. The conditions noted are these: in vivo.
Series [16] is described as follows: Toxicity in BALB/c mouse assessed as pathological changes in spleen at 50 mg/kg, ip administered as single dose and measured after 24 hrs by H & E staining based analysis. In kind it is organism-based. The conditions noted are these: in vivo.
Series [17] can be described thus: Toxicity in BALB/c mouse assessed as pathological changes in kidney at 50 mg/kg, ip administered as single dose and measured after 24 hrs by H & E staining based analysis. The format is organism-based. The conditions noted are these: in vivo.
Series [18] can be described thus: Binding affinity to methicillin-resistant Staphylococcus aureus 15 phosphatidylglycerol assessed as dissociation constant by ITC method.
Series [19] can be described thus: Binding affinity to methicillin-resistant Staphylococcus aureus 15 cardiolipin assessed as dissociation constant by ITC method.
For series [20], the system named is Staphylococcus aureus. Put plainly: Upregulation of SPI gene expression in methicillin-resistant Staphylococcus aureus 15 assessed as log2 of fold change in gene expression at 8 ug/ml incubated for 6 hrs by transcriptome analysis. The conditions noted are these: dose 8 µg/ml. In kind it is functional.
Series [21] has as its system Staphylococcus aureus. Nature of the series: Upregulation of rplJ gene expression in methicillin-resistant Staphylococcus aureus 15 assessed as log2 of fold change in gene expression at 8 ug/ml incubated for 6 hrs by transcriptome analysis. In kind it is functional. The conditions noted are these: dose 8 µg/ml.
Series [22] relates to Staphylococcus aureus. Put plainly: Upregulation of YidC gene expression in methicillin-resistant Staphylococcus aureus 15 assessed as log2 of fold change in gene expression at 8 ug/ml incubated for 6 hrs by transcriptome analysis. The format is functional. The conditions noted are these: dose 8 µg/ml.
Series [23] has as its system Staphylococcus aureus. Nature of the series: Downregulation of pgaC gene expression in methicillin-resistant Staphylococcus aureus 15 assessed as fold change in gene expression at 8 ug/ml incubated for 6 hrs by transcriptome analysis. The format is functional. The conditions noted are these: dose 8 µg/ml.

For the compound `C=CCc1cccc(Oc2ccc(C(=O)CC)cc2)c1OCC[N+](C)(C)CC(=O)NCCCCCC.[Br-]`, the MIC in the series with Enterococcus faecalis worked out at 2 µg/mL. Further, the selectivity ratio in [1] is 556. In addition, in the series on Staphylococcus aureus [2], the inhibition entry is “Dose-Dependent Effect”. 64 µg/mL produced 100% inhibition in the series on Staphylococcus aureus [3]. Moreover, the inhibition at 128 µg/mL in the series with Staphylococcus aureus [4] was more than 80%. The outcome with Staphylococcus aureus [5], in the series with Cell membrane [6], in the series with Staphylococcus aureus [7], with Staphylococcus aureus [8] and with Cell membrane [9] was Active. Moreover, the Stability result in series [10] is “Stable”. For the same compound, the Activity entry (in the series on L02 [11]; with L02 [12]; in [14]; in series [15]; in series [16]; in series [17]) was “Non-Toxic” each time. Besides, the survival at 168 h in series [13] was determined as 100%.
With `C=CCc1cccc(Oc2ccc(C(=O)CC)cc2)c1OCCC[N+](C)(C)CC(=O)NCCCCCC.[Br-]`, the MIC in the series with Enterococcus faecalis was 2 µg/mL. Further, the selectivity ratio in [1] was 458. In the series on Staphylococcus aureus [2], the inhibition result is “Dose-Dependent Effect”. Moreover, testing at 64 µg/mL in the series on Staphylococcus aureus [3] gave an inhibition of 100%. Besides, in the series on Staphylococcus aureus [4], the inhibition at 128 µg/mL is more than 80%. The outcome with Staphylococcus aureus [5], in the series with Cell membrane [6], in the series with Staphylococcus aureus [7], with Staphylococcus aureus [8] and in the series on Cell membrane [9] was Active. Further, the results for the equilibrium dissociation constant (Kd) in [18] and in series [19] were 3.43 µM and 1330 nM, respectively. For the same compound, the log2FC is 1.96 with Staphylococcus aureus [20], 1.8 with Staphylococcus aureus [21], 1.27 with Staphylococcus aureus [22] and -2.8 in the series with Staphylococcus aureus [23]. Further, the Stability entry in [10] is “Stable”. For the same compound, the Activity result (in the series with L02 [11]; with L02 [12]; in [14]; in [15]; in [16]; in series [17]) was “Non-Toxic” each time. Also, in series [13], the survival at 168 h amounted to 100%.
